Test results published in patent US20080008658A1, “Contrast Agent Formulations for the Visualization of the Lymphatic System” (Bracco Imaging SpA, priority 2004, published 2008).

Assay: Particle size distribution of microbubble suspensions in the Coulter Multisizer, method b (flotation purification from gas-free particles)
Assay type: physicochemical
Protocol: Dye-containing suspensions of gas-containing ultrasound contrast agents of the invention were analyzed for the particle size distributions in the Coulter® Multisizer (Beckman Coulter Inc. Fullerton, Calif., USA). […] Two methods may be used to determine the distribution of just the gas-containing particles in the compositions of the invention. Method b) The frequency distribution of the diameter of gas-containing particles is obtained after purification of the initial particle suspension from gas-free particles. Purification is achieved by flotation of the gas-containing particles in a centrifuge and substitution of the infranatant containing the gas-free particles with fresh saline. The procedure is executed once or twice depending on the initial contamination by gas-free particles. This method is preferable in those cases wherein the amount of insoluble material in the gas-containing particles exceeds 10% of the total insoluble material, in the initial suspension. The results may be represented either in the form of plots of the frequency distributions (e.g. example 11 and FIG. 1) or as parameters elaborated therefrom, i. e. total microbubble concentration, total microbubble surface, microbubble volume concentration and mean diameter in number (e.g. example 12). […]

Cc1cc(-c2ccc(/N=N/c3ccc4c(S(=O)(=O)O)cc(S(=O)(=O)O)c(N)c4c3O)c(C)c2)ccc1/N=N/c1ccc2c(S(=O)(=O)O)cc(S(=O)(=O)O)c(N)c2c1O [Evans blue]
Interference with the regular formation of microbubbles (SonoVue reconstituted with saline containing Evans blue vs regular SonoVue, echographic perspective): negligible | Stability of the microbubbles (time 0 vs after 3 h, presence of Evans blue): did not jeopardize the stability of the microbubbles
